# In US8796256B2 (Janssen Pharmaceutica NV, priority 2010, dated 2014):
# Target: T1, ERR1 (also known as ERR-α or ERR-1) (Homo sapiens, UniProt P11474)
# T1 sequence (P11474 193-421 limits assumed): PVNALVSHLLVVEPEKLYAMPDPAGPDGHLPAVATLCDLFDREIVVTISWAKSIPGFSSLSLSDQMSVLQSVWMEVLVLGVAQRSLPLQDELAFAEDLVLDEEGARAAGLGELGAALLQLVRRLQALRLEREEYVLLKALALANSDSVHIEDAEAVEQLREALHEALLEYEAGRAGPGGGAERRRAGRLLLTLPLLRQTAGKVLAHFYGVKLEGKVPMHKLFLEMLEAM
# Experiment: TR-FRET assay (disruption of co-activator peptide binding to ERR1 LBD)
# Format: biochemical
# Settings: 6 nM 6His-ERR1LBD, 6 nM GST-SRC-2 peptide; average of 3 independent experiments
# In short: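 His-tagged ERR1 ligand-binding domain and GST-labelled SRC-2 peptide, each 6 nM, equilibrated at 25° C for 4-18 h in Tris pH 8/Hepes/KCl/DTT/delipidated BSA buffer. Compound-induced loss of co-activator binding read as Eu cryptate→XL665 energy transfer; values from hyperbolic curve fits averaged over 3 independent runs.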
row,Structure (SMILES),EC50 [µM]
1,"CC(=O)Nc1nc(CN2C(=O)S/C(=C\c3ccc4c(cnn4Cc4ccc(Cl)cc4C(F)(F)F)c3)C2=O)cs1 [Compound 413, N-(4-{[(5Z)-5-({1-[4-Chloro-2-(trifluoromethyl)benzyl]-1H-indazol-5-yl}methylidene)-2,4-dioxo-1,3-thiazolidin-3-yl]methyl}-1,3-thiazol-2-yl)acetamide]",0.312
2,"C[C@@H](N)CN1C(=O)S/C(=C\c2ccc3c(cnn3Cc3ccc(C(F)(F)F)cc3C(F)(F)F)c2)C1=O [Compound 80, (5Z)-3-[(2R)-2-Aminopropyl]-5-({1-[2,4-bis(trifluoromethyl)benzyl]-1H-indazol-5-yl}methylidene)-1,3-thiazolidine-2,4-dione]",0.041
3,"CS(=O)(=O)NC(=O)CN1C(=O)S/C(=C\c2ccc3c(cnn3Cc3ccc(F)cc3C(F)(F)F)c2)C1=O [Compound 185, 2-[(5Z)-5-({1-[4-Fluoro-2-(trifluoromethyl)benzyl]-1H-indazol-5-yl}methylidene)-2,4-dioxo-1,3-thiazolidin-3-yl]-N-(methylsulfonyl)acetamide]",0.277
4,"COC(=O)NC1(CN2C(=O)S/C(=C\c3ccc4c(cnn4Cc4ccc(Cl)cc4C(F)(F)F)c3)C2=O)CCOCC1 [Compound 309, Methyl (4-{[(5Z)-5-({1-[4-chloro-2-(trifluoromethyl)benzyl]-1H-indazol-5-yl}methylidene)-2,4-dioxo-1,3-thiazolidin-3-yl]methyl}tetrahydro-2H-pyran-4-yl)carbamate]",0.015
5,"COC(=O)CN1C(=O)S/C(=C\c2ccc3c(cnn3[C@H]3CCc4cc(Cl)ccc43)c2)C1=O [Compound 171, Methyl [(5Z)-5-({1-[(1S)-5-chloro-2,3-dihydro-1H-inden-1-yl]-1H-indazol-5-yl}methylidene)-2,4-dioxo-1,3-thiazolidin-3-yl]acetate]",0.029
6,N#CCN1CC[C@@H](N2C(=O)S/C(=C\c3ccc4c(cnn4Cc4ccc(Cl)cc4C(F)(F)F)c3)C2=O)[C@H](F)C1 (relative stereo) [Compound 338],0.024
7,"O=C(O)c1ccc(CN2C(=O)S/C(=C\c3ccc4c(cnn4Cc4ccc(Cl)cc4C(F)(F)F)c3)C2=O)o1 [Compound 380, 5-{[(5Z)-5-({1-[4-Chloro-2-(trifluoromethyl)benzyl]-1H-indazol-5-yl}methylidene)-2,4-dioxo-1,3-thiazolidin-3-yl]methyl}furan-2-carboxylic acid]",0.015
8,"CS(=O)(=O)NN1C(=O)S/C(=C\c2ccc3c(c2)c(C#N)nn3Cc2ccc(C(F)(F)F)cc2C(F)(F)F)C1=O [Compound 369, N-[(5Z)-5-({1-[2,4-Bis(trifluoromethyl)benzyl]-3-cyano-1H-indazol-5-yl}methylidene)-2,4-dioxo-1,3-thiazolidin-3-yl]methanesulfonamide]",0.064
9,"CN1CCC(F)(CN2C(=O)S/C(=C\c3ccc4c(cnn4Cc4ccc(Cl)cc4C(F)(F)F)c3)C2=O)CC1 [Compound 304, (5Z)-5-({1-[4-Chloro-2-(trifluoromethyl)benzyl]-1H-indazol-5-yl}methylidene)-3-[(4-fluoro-1-methylpiperidin-4-yl)methyl]-1,3-thiazolidine-2,4-dione]",0.007
10,"O=C1S/C(=C\c2ccc3c(c2)nnn3Cc2ccc(Cl)cc2C(F)(F)F)C(=O)N1C[C@H]1COCCN1 [Compound 267, (5Z)-5-({1-[4-Chloro-2-(trifluoromethyl)benzyl]-1H-benzotriazol-5-yl}methylidene)-3-[(3S)-morpholin-3-ylmethyl]-1,3-thiazolidine-2,4-dione]",0.011
11,"O=C1S/C(=C\c2ccc3c(cnn3Cc3ccc(Cl)cc3C(F)(F)F)c2)C(=O)N1CCN1CCOCC1 [Compound 3, (5Z)-5-({1-[4-Chloro-2-(trifluoromethyl)benzyl]-1H-indazol-5-yl}methylidene)-3-(2-morpholin-4-ylethyl)-1,3-thiazolidine-2,4-dione]",0.043
12,"CC(C)C[C@@H](N)CN1C(=O)S/C(=C\c2ccc3c(cnn3Cc3ccc(Cl)cc3C(F)(F)F)c2)C1=O [Compound 54, (5Z)-3-[(2R)-2-Amino-4-methylpentyl]-5-({1-[4-chloro-2-(trifluoromethyl)benzyl]-1H-indazol-5-yl}methylidene)-1,3-thiazolidine-2,4-dione]",0.037
13,"O=C1S/C(=C\c2ccc3c(cnn3Cc3ccc(Cl)cc3C(F)(F)F)c2)C(=O)N1C[C@@H]1CN(CCO)CCO1 [Compound 187, (5Z)-5-({1-[4-Chloro-2-(trifluoromethyl)benzyl]-1H-indazol-5-yl}methylidene)-3-{[(2S)-4-(2-hydroxyethyl)morpholin-2-yl]methyl}-1,3-thiazolidine-2,4-dione]",0.027
14,"COC(=O)[C@@H]1C[C@@H](N2C(=O)S/C(=C\c3ccc4c(cnn4Cc4ccc(Cl)cc4C(F)(F)F)c3)C2=O)CN1 [Compound 180, Methyl (4R)-4-[(5Z)-5-({1-[4-chloro-2-(trifluoromethyl)benzyl]-1H-indazol-5-yl}methylidene)-2,4-dioxo-1,3-thiazolidin-3-yl]-L-prolinate]",0.032
15,"CS(=O)(=O)NN1C(=O)S/C(=C\c2ccc3c(c2)c(Cl)nn3Cc2ccc(Cl)cc2C(F)(F)F)C1=O [Compound 366, N-[(5Z)-5-({3-Chloro-1-[4-chloro-2-(trifluoromethyl)benzyl]-1H-indazol-5-yl}methylidene)-2,4-dioxo-1,3-thiazolidin-3-yl]methanesulfonamide]",0.006
16,"CC(C)(C)OC(=O)COCCN1C(=O)S/C(=C\c2ccc3c(cnn3Cc3ccc(Cl)cc3C(F)(F)F)c2)C1=O [Compound 236, tert-Butyl {2-[(5Z)-5-({1-[4-chloro-2-(trifluoromethyl)benzyl]-1H-indazol-5-yl}methylidene)-2,4-dioxo-1,3-thiazolidin-3-yl]ethoxy}acetate]",0.111
17,"CN1[C@@H]2CC[C@H]1C[C@H](N1C(=O)S/C(=C\c3ccc4c(cnn4Cc4ccc(C(F)(F)F)cc4C(F)(F)F)c3)C1=O)C2 [Compound 62, (5Z)-5-({1-[2,4-Bis(trifluoromethyl)benzyl]-1H-indazol-5-yl}methylidene)-3-[(3-exo)-8-methyl-8-azabicyclo[3.2.1]oct-3-yl]-1,3-thiazolidine-2,4-dione]",0.019

# Further compounds by falling EC50, results first:
row,EC50 [µM],Structure (SMILES)
1,0.192,"O=C1S/C(=C\c2ccc3c(cnn3Cc3ccc(C(F)(F)F)cc3C(F)(F)F)c2)C(=O)N1C[C@@H]1CCCN2CCCC[C@H]12 [Compound 207, (5Z)-5-({1-[2,4-Bis(trifluoromethyl)benzyl]-1H-indazol-5-yl}methylidene)-3-[(1S,9aR)-octahydro-2H-quinolizin-1-ylmethyl]-1,3-thiazolidine-2,4-dione]"
2,0.1,"CN(C)CCCN1C(=O)S/C(=C\c2ccc3c(ccn3Cc3ccc(C(F)(F)F)cc3C(F)(F)F)c2)C1=O [Compound 239, (5Z)-5-[(1-{[2,4-Bis(trifluoromethyl)phenyl]methyl}-1H-indol-5-yl)methylidene]-3-[3-(dimethylamino)-propyl]-1,3-thiazolidine-2,4-dione]"
3,0.091,"[2H]C([2H])([2H])N1CC[C@@H](N2C(=O)S/C(=C\c3ccc4c(cnn4Cc4ccc(C(F)(F)F)cc4C(F)(F)F)c3)C2=O)[C@H](F)C1 (relative stereo) [Compound 330, (5Z)-5-({1-[2,4-Bis(trifluoromethyl)benzyl]-1H-indazol-5-yl}methylidene)-3-[trans-3-fluoro-1-(1,1,1-d3)-methylpiperidin-4-yl]-1,3-thiazolidine-2,4-dione]"
4,0.054,"O=C1S/C(=C\c2ccc3c(cnn3Cc3ccc(Cl)cc3C(F)(F)F)c2)C(=O)N1C[C@@H]1C[C@@H](O)CN1CCO [Compound 186, (5Z)-5-({1-[4-Chloro-2-(trifluoromethyl)benzyl]-1H-indazol-5-yl}methylidene)-3-{[(2S,4R)-4-hydroxy-1-(2-hydroxyethyl)pyrrolidin-2-yl]methyl}-1,3-thiazolidine-2,4-dione]"
5,0.033,"O=C(O)C(Cc1ccccn1)N1C(=O)S/C(=C\c2ccc3c(cnn3Cc3ccc(Cl)cc3C(F)(F)F)c2)C1=O (stereo not shown) [Compound 216, 2-[(5Z)-5-({1-[4-Chloro-2-(trifluoromethyl)benzyl]-1H-indazol-5-yl}methylidene)-2,4-dioxo-1,3-thiazolidin-3-yl]-3-pyridin-2-ylpropanoic acid]"
6,0.023,"CN(CCN1C(=O)S/C(=C\c2ccc3c(cnn3Cc3ccc(Cl)cc3C(F)(F)F)c2)C1=O)S(C)(=O)=O [Compound 397, N-{2-[(5Z)-5-({1-[4-Chloro-2-(trifluoromethyl)benzyl]-1H-indazol-5-yl}methylidene)-2,4-dioxo-1,3-thiazolidin-3-yl]ethyl}-N-methylmethanesulfonamide]"
7,0.017,"O=C1S/C(=C\c2ccc3c(cnn3Cc3ccc(Cl)cc3C(F)(F)F)c2)C(=O)N1CCn1ccnc1 [Compound 296, (5Z)-5-({1-[4-Chloro-2-(trifluoromethyl)benzyl]-1H-indazol-5-yl}methylidene)-3-[2-(1H-imidazol-1-yl)ethyl]-1,3-thiazolidine-2,4-dione]"
8,0.009,"CS(=O)(=O)NN1C(=O)S/C(=C\c2cc3cnn(Cc4ccc(Cl)cc4C(F)(F)F)c3cc2F)C1=O [Compound 371, N-[(5Z)-5-({1-[4-Chloro-2-(trifluoromethyl)benzyl]-6-fluoro-1H-indazol-5-yl}methylidene)-2,4-dioxo-1,3-thiazolidin-3-yl]methanesulfonamide]"
